One data set concerns the target T1, MMP-1 (Homo sapiens, UniProt P03956).
T1 sequence (P03956 100-469): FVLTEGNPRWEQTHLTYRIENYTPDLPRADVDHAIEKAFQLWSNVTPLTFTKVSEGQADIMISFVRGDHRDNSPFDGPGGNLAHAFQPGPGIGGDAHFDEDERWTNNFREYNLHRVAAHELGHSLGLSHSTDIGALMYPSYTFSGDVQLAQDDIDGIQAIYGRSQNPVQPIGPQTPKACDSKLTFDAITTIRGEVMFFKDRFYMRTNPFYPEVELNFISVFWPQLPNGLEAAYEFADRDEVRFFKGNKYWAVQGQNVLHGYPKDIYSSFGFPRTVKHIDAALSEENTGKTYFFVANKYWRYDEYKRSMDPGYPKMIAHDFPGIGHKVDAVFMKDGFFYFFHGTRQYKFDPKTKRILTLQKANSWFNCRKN
Briefly: MMP-1 inhibition (thiopeptide or fluorescent peptide substrate). Type of data set: biochemical.

Each structure is given as a SMILES string.

Procedure for MMP-1: The enzyme activity is measured by the rate of the color increase. The thiopeptide substrate is made up fresh as a 20 mM stock in 100% DMSO and the DTNB is dissolved in 100% DMSO as a 100 mM stock and stored in the dark at room temperature. Both the substrate and DTNB are diluted together to 1 mM with substrate buffer (50 mM HEPES pH 7.5, 5 mM CaCl2) before use. The stock of enzyme is diluted with buffer (50 mM HEPES, pH 7.5, 5 mM CaCl2, 0.02% Brij) to the desired final concentration.
For either the thiopeptide or fluorescent peptide test procedures, the slope of the line is calculated and represents the reaction rate. The linearity of the reaction rate is confirmed (r^2>0.85). The mean (x±sem) of the control rate is calculated and compared for statistical significance (p<0.05) with drug-treated rates using Dunnett's multiple comparison test.

By melting point is commonly meant the temperature, or range, at which the solid turns liquid. `CC#CCOc1ccc(S(=O)(=O)N(C)c2c(C(=O)NO)cnc3snc(C)c23)cc1` [Example 13, 4-[(4-But-2-ynyloxy-benzenesulfonyl)-methyl-amino]-3-methyl-isothiazolo[5,4-b]pyridine-5-carboxylic acid hydroxyamide] had a melting point of 183 to 184 °C. The same measure, in the same setting: the same measure for `CC#CCOc1ccc(S(=O)(=O)N(C)c2c(C(=O)NO)cnc3c2c(C)nn3C)cc1` [Example 7, 4-[(4-But-2-ynyloxy-benzenesulfonyl)-methyl-amino]-1,3-dimethyl-1H-pyrazolo[3,4-b]pyridine-5-carboxylic acid hydroxyamide]: 189 to 192 °C. Broadly, the IC50 is the midpoint of a concentration-inhibition curve. In turn, `CC#CCOc1ccc(S(=O)(=O)N(C)c2c(C(=O)NO)cnc3onc(C)c23)cc1` [Example 9, 4-[(4-But-2-ynyloxy-benzenesulfonyl)-methyl-amino]-3-methyl-isoxazolo[5,4-b]pyridine-5-carboxylic acid hydroxyamide] gave an IC50 at MMP-1 of 1910 nM.

(Values after patent US6946473B2, “Preparation and use of acetylenic ortho-sulfonamido and phosphinic acid amido bicyclic heteroaryl hydroxamic acids as TACE inhibitors” (priority 1999, dated 2005).)
